Molecular target: Sigma 2 receptor
Test: Binding affinity against sigma 2 opioid receptor using 3[H]-DTG in the presence of dextrallorphan as radioligand

Row | Ki | SMILES
1 | 8.1 nM | CN(CCc1ccc(Cl)c(Cl)c1)CCN1CCCC1
2 | > 10000 nM | O=C(Cc1ccc(Cl)c(Cl)c1)OCCN1CCCC1

Reference: ChEMBL document CHEMBL1133125, “A sigma-1 receptor selective analogue of BD1008. A potential substitute for (+)-opioids in sigma receptor binding assays” (Bioorg Med Chem Lett, 2000)
